Test results taken from patent publication US11780849B2, “Imino sulfanone inhibitors of ENPP1” (Volastra Therapeutics, Inc., priority 2020, dated 2023).
Read-outs that look alike come from different tables or passages of the source.

Assays:
ENPP-1 ECD [1] = biological target: T1, ENPP-1 ECD (Homo sapiens (Human), UniProt P22413); experiment: Assay 2: inhibition of ENPP1 hydrolysis of 2′,3′-cGAMP (AMP-Glo, […] enzyme)
Procedure: Assay 2: Compared to the conditions in Assay 1, this assay has a larger dynamic range and ensures the system is under steady-state conditions by reducing the enzyme concentration in the assay.
Test compounds were plated in a 3× dilution scheme in a 384 well plate. […] AMP Detection solution (10 μL) was added to each well, the plate centrifuged and incubated for 60 min.

ENPP-1 ECD [2] = biological target: T1, ENPP-1 ECD; experiment: Assay 1: inhibition of ENPP1 hydrolysis of 2′,3′-cGAMP (AMP-Glo, […] enzyme)
Procedure: Assay 1: Test compounds were plated in a 3× dilution scheme in a 384 well plate. […] AMP Detection solution (100 μL) was added to each well, the plate centrifuged and incubated for 60 min.

[3] = Assay 2 (KI), ENPP1 hydrolysis of 2′,3′-cGAMP, AMP-Glo, […] ENPP-1, 24 μM cGAMP
[4] = Assay 2 (KI), inhibition of ENPP1 hydrolysis of 2′,3′-cGAMP, no unit in Table 18 (Table 17 legend for this assay uses nM)
[5] = Assay 1 (IC50), inhibition of ENPP1 hydrolysis of 2′,3′-cGAMP, no unit in Table 18 (Table 17 legend for this assay uses nM)
[6] = read-out: Assay 1 (IC50), ENPP1 hydrolysis of 2′,3′-cGAMP, AMP-Glo
[7] = Assay 1 (IC50), ENPP1 hydrolysis of 2′,3′-cGAMP, AMP-Glo
[8] = read-out: Assay 2 (KI), inhibition of ENPP1 hydrolysis of 2′,3′-cGAMP, no unit in Table 18 (Table 17 legend for this assay uses nM)

T1 sequence (P22413 98-925): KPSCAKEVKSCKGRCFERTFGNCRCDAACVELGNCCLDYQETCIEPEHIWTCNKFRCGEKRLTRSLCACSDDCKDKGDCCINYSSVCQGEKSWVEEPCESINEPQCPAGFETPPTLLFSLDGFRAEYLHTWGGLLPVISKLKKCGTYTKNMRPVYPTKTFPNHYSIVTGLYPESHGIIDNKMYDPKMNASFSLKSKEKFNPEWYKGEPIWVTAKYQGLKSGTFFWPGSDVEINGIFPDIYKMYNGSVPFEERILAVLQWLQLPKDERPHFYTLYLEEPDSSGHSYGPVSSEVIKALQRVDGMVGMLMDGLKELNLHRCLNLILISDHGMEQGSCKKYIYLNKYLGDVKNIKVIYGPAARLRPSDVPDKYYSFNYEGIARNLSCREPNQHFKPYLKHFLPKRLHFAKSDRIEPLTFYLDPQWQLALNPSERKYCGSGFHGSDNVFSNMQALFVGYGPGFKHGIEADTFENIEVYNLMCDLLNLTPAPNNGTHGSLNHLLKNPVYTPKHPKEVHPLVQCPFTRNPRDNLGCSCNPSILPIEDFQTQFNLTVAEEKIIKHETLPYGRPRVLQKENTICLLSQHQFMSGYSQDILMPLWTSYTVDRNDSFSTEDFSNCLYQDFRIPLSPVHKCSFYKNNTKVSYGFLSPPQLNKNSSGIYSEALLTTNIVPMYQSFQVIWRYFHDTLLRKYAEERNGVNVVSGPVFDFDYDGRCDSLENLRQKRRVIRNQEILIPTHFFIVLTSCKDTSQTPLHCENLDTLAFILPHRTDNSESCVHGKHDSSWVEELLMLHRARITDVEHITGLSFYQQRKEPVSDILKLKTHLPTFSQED

SMILES	Ki (ENPP-1 ECD [1]; [4]) [nM]	IC50 (ENPP-1 ECD [2]; [5]) [nM]	also measured
COc1cc2nccc(Oc3ccc([S@](C)(=N)=O)cc3)c2cc1OC [Compound 1R, (R)-(4-((6,7-dimethoxyquinolin-4-yl)oxy)phenyl)(imino)(methyl)-λ^6-sulfanone]	330	3200	Ki (ENPP-1 ECD [1]; [3]): > 300 nM; IC50 (ENPP-1 ECD [2]; [6]): > 1000 nM
COc1ccc2c(C(=O)N3CCS(=N)(=O)CC3)ccnc2c1 [Compound 6, 1-imino-4-(7-methoxyquinoline-4-carbonyl)-1λ^6-thiomorpholin-1-one]		> 30000	IC50 (ENPP-1 ECD [2]; [6]): > 1000 nM
COc1ccc2c(Oc3ccc(S(C)(=N)=O)c(F)c3)ccnc2c1 (centres unmarked) [Compound 10, (2-fluoro-4-((7-methoxyquinolin-4-yl)oxy)phenyl)(imino)(methyl)-λ^6-sulfanone]	2.8	23	Ki (ENPP-1 ECD [1]; [3]): < 3 nM; IC50 (ENPP-1 ECD [2]; [7]): 10 to 1000 nM
COc1cc2ncnc(OCc3ccc(S(C)(=N)=O)cc3)c2cc1OC (centres unmarked) [Compound 14, (4-(((6,7-dimethoxyquinazolin-4-yl)oxy)methyl)phenyl)(imino)(methyl)-λ^6-sulfanone]	15	110	Ki (ENPP-1 ECD [1]; [3]): 3 to 300 nM; IC50 (ENPP-1 ECD [2]; [7]): 10 to 1000 nM
COc1ccc2c(CC(=O)N3CCS(=N)(=O)CC3)ccnc2c1 [Compound 26, 1-imino-4-[2-(7-methoxyquinolin-4-yl)acetyl]-1λ^6-thiomorpholin-1-one]		8800	IC50 (ENPP-1 ECD [2]; [6]): > 1000 nM
COc1ccc2ncc(C#N)c(Oc3ccc(S(C)(=N)=O)cc3)c2c1 (centres unmarked) [Compound 47, 6-methoxy-4-(4-(S-methylsulfonimidoyl)phenoxy)quinoline-3-carbonitrile]		180	IC50 (ENPP-1 ECD [2]; [7]): 10 to 1000 nM
Cc1ccc2ncc(C#N)c(Oc3ccc(S(C)(=N)=O)cc3)c2c1 (centres unmarked) [Compound 50, 6-methyl-4-(4-(S-methylsulfonimidoyl)phenoxy)quinoline-3-carbonitrile]		2600	IC50 (ENPP-1 ECD [2]; [6]): > 1000 nM
COc1cccc2c(Oc3ccc(S(C)(=N)=O)cc3)c(C#N)cnc12 (centres unmarked) [Compound 58, 8-methoxy-4-(4-(S-methylsulfonimidoyl)phenoxy)quinoline-3-carbonitrile]		51	IC50 (ENPP-1 ECD [2]; [7]): 10 to 1000 nM
COc1cnc2c(Oc3ccc(S(C)(=N)=O)cc3)ccnc2c1 (centres unmarked) [Compound 76, imino(4-((7-methoxy-1,5-naphthyridin-4-yl)oxy)phenyl)(methyl)-λ^6-sulfanone]		23000	IC50 (ENPP-1 ECD [2]; [6]): > 1000 nM
COc1cc2nccc(Oc3ccc(S(C)(=N)=O)cc3)c2cn1 (centres unmarked) [Compound 77, imino(4-((7-methoxy-1,6-naphthyridin-4-yl)oxy)phenyl)(methyl)-λ^6-sulfanone]		57	IC50 (ENPP-1 ECD [2]; [7]): 10 to 1000 nM
COc1ccc2c(-c3ccc(CS(C)(=N)=O)cc3)ccnc2c1 (centres unmarked) [Compound 88, imino(4-(7-methoxyquinolin-4-yl)benzyl)(methyl)-λ^6-sulfanone]		920	IC50 (ENPP-1 ECD [2]; [7]): 10 to 1000 nM
COc1ccc2c(Oc3ccc(S(C)(=N)=O)cc3)ccnc2c1F (centres unmarked) [Compound 128, {4-[(8-fluoro-7-methoxyquinolin-4-yl)oxy]phenyl}(imino)methyl-λ^6-sulfanone]		310	IC50 (ENPP-1 ECD [2]; [7]): 10 to 1000 nM
COc1ccc2nccc(Oc3ccc(S(C)(=N)=O)cc3)c2n1 (centres unmarked) [Compound 130, imino({4-[(6-methoxy-1,5-naphthyridin-4-yl)oxy]phenyl})methyl-λ^6-sulfanone]		8100	
CS(=N)(=O)c1ccc(Oc2c(C#N)cnc3cc(F)ccc23)cc1 (centres unmarked) [Compound 131, 7-fluoro-4-{4-[imino(methyl)oxo-λ^6-sulfanyl]phenoxy}quinoline-3-carbonitrile]		> 30000	IC50 (ENPP-1 ECD [2]; [6]): > 1000 nM
COc1cccc2c(OCc3ccc(S(C)(=N)=O)cc3)ccnc12 (centres unmarked) [Compound 134, imino(4-{[(8-methoxyquinolin-4-yl)oxy]methyl}phenyl)methyl-λ^6-sulfanone]		1100	
COc1cccc2c(-c3ccc(CCS(C)(=N)=O)cc3)ncnc12 (centres unmarked) [Compound 154, imino({2-[4-(8-methoxyquinazolin-4-yl)phenyl]ethyl})methyl-λ^6-sulfanone]		1800	IC50 (ENPP-1 ECD [2]; [6]): > 1000 nM
CS(=N)(=O)Cc1ccc(-c2ccnc3ccccc23)cc1 (centres unmarked) [Compound 155, imino(methyl){[4-(quinolin-4-yl)phenyl]methyl}-λ^6-sulfanone]		14000	IC50 (ENPP-1 ECD [2]; [6]): > 1000 nM
CC[S@](=N)(=O)CC1(O)CCN(c2ncnc3c(OC)cccc23)CC1 [Compound 195b]			Ki (ENPP-1 ECD [1]; [8]): 7.7 nM
COc1cccc2c(N3CCC(O)(C[S@](C)(=N)=O)CC3)c(C#N)cnc12 [Compound 198b]			Ki (ENPP-1 ECD [1]; [8]): 1.2 nM
COc1cccc2c(N3CCC(CS(C)(=N)=O)CC3)c(F)cnc12 (centres unmarked) [Compound 202, {[1-(3-fluoro-8-methoxyquinolin-4-yl)piperidin-4-yl]methyl}(imino)methyl-λ^6-sulfanone]	370		
COc1ccc(F)c2c(N3CCC(CS(C)(=N)=O)CC3)c(C#N)cnc12 (centres unmarked) [Compound 203, 5-fluoro-4-(4-{[imino(methyl)oxo-λ^6-sulfanyl]methyl}piperidin-1-yl)-8-methoxyquinoline-3-carbonitrile]	1.7		
COc1cc2nccc(-c3cccc(CCS(C)(=N)=O)c3)c2cc1OC (centres unmarked) [Compound 204, {2-[3-(6,7-dimethoxyquinolin-4-yl)phenyl]ethyl}(imino)methyl-λ^6-sulfanone]	28		

SMILES	Ki (ENPP-1 ECD [1]; [4]) [nM]	IC50 (ENPP-1 ECD [2]; [5]) [nM]	also measured
COc1cc2nccc(N3CCC4(CC3)CCN([S@](C)(=N)=O)C4)c2cc1F [Compound 205a]			Ki (ENPP-1 ECD [1]; [8]): 5 nM
COc1cc2ncnc(N3CC4(CCN(S(C)(=N)=O)CC4)C3)c2cc1OC (centres unmarked) [Compound 206, [2-(6,7-dimethoxyquinazolin-4-yl)-2,7-diazaspiro[3.5]nonan-7-yl](imino)methyl-λ^6-sulfanone]	17		
COc1cc2ncnc(N3CCC4(CC3)CCN(S(C)(=N)=O)CC4)c2cc1OC (centres unmarked) [Compound 209, [9-(6,7-dimethoxyquinazolin-4-yl)-3,9-diazaspiro[5.5]undecan-3-yl](imino)methyl-λ^6-sulfanone]	17		
COc1cc2nncc(N3CCC4(CC3)CCN([S@@](C)(=N)=O)C4)c2cc1OC [Compound 211b]			Ki (ENPP-1 ECD [1]; [8]): 0.5 nM
COc1cccc2c(N3CCC4(CC3)CCN4S(C)(=N)=O)ncnc12 (centres unmarked) [Compound 214, imino[7-(8-methoxyquinazolin-4-yl)-1,7-diazaspiro[3.5]nonan-1-yl]methyl-λ^6-sulfanone]	110		
COc1cccc2c(N3CCC4(CC3)CCN(S(C)(=N)=O)C4)ncnc12 (centres unmarked) [Compound 215, imino[8-(8-methoxyquinazolin-4-yl)-2,8-diazaspiro[4.5]decan-2-yl]methyl-λ^6-sulfanone]	3.8		
COc1cc2ncnc(N3CCC4(CCN(S(C)(=N)=O)C4)C3)c2cc1OC (centres unmarked) [Compound 216, [7-(6,7-dimethoxyquinazolin-4-yl)-2,7-diazaspiro[4.4]nonan-2-yl](imino)methyl-λ^6-sulfanone]	5.5		
COc1cc2nccc(N3CCC4(CC3)CCN([S@](=N)(=O)C3CC3)C4)c2cc1F [Compound 218b]			Ki (ENPP-1 ECD [1]; [8]): 1.5 nM
COc1cc2nncc(N3CCC4(CC3)CCN(S(C)(=N)=O)C4)c2cc1Cl (centres unmarked) [Compound 219, [8-(6-chloro-7-methoxycinnolin-4-yl)-2,8-diazaspiro[4.5]decan-2-yl](imino)methyl-λ^6-sulfanone]	0.091		
COc1cc2nncc(N3CCC4(CC3)CCN([S@@](C)(=N)=O)C4)c2cc1Cl [Compound 219b]			Ki (ENPP-1 ECD [1]; [8]): 2 nM
COc1cccc2c(N3CC4(CCN([S@](C)(=N)=O)C4)C3)c(C#N)cnc12 [Compound 222b]			Ki (ENPP-1 ECD [1]; [8]): 1.3 nM
COc1cc2nccc(OC[C@@H]3CCN([S@@](C)(=N)=O)C3)c2cc1F [Compound 229a]			Ki (ENPP-1 ECD [1]; [8]): 39 nM
COc1cc2nccc(OC[C@H]3CCN([S@](C)(=N)=O)C3)c2cc1F [Compound 230a]			Ki (ENPP-1 ECD [1]; [8]): 11 nM
COc1ccc2c(COc3cccc(S(C)(=N)=O)c3)ccnc2c1 (centres unmarked) [Compound 232, imino({3-[(7-methoxyquinolin-4-yl)methoxy]phenyl})methyl-λ^6-sulfanone]	3.3		
COc1ccc2c(-n3cc4c(n3)CCN(S(C)(=N)=O)C4)ccnc2c1 (centres unmarked) [Compound 233, imino[2-(7-methoxyquinolin-4-yl)-2H,4H,5H,6H,7H-pyrazolo[4,3-c]pyridin-5-yl]methyl-λ^6-sulfanone]	> 500		
COc1ccc2c(-n3cc(CCS(C)(=N)=O)cn3)ccnc2c1 (centres unmarked) [Compound 234, imino({2-[1-(7-methoxyquinolin-4-yl)-1H-pyrazol-4-yl]ethyl})methyl-λ^6-sulfanone]	> 500		
COc1ccc2c(OC3CCN(S(C)(=N)=O)CC3)ccnc2c1 (centres unmarked) [Compound 235, imino({4-[(7-methoxyquinolin-4-yl)oxy]piperidin-1-yl})methyl-λ^6-sulfanone]	8		
COc1cc2ncnc(N3CC4(CC(C[S@@](C)(=N)=O)C4)C3)c2cc1OC [Compound 237a]			Ki (ENPP-1 ECD [1]; [8]): 2.4 nM
COc1cccc2c(N3CC[C@H](C[S@](C)(=N)=O)C3)ncnc12 [Compound 238b]			Ki (ENPP-1 ECD [1]; [8]): 13 nM
COc1cccc2c(N3CC[C@@H](C[S@@](C)(=N)=O)C3)ncnc12 [Compound 239b]			Ki (ENPP-1 ECD [1]; [8]): 83 nM
COc1ccc2c(O[C@H]3CC[C@H](S(C)(=N)=O)CC3)ccnc2c1 (some centres unmarked) [Compound 243, imino(methyl)[(1r,4r)-4-[(7-methoxyquinolin-4-yl)oxy]cyclohexyl]-λ^6-sulfanone]	4.3		
COc1cccc2c(N3CC=C(CS(C)(=N)=O)CC3)ncnc12 (centres unmarked) [Compound 246, imino({[1-(8-methoxyquinazolin-4-yl)-1,2,3,6-tetrahydropyridin-4-yl]methyl})methyl-λ^6-sulfanone]	19		
